According to the NIST ThermoML archive (doi:10.1021/acs.jced.8b00229):

Conditions: Liquid, Vibrating tube method

C=CCCCC [hex-1-ene]
Conditions	mass density [kg/m3]
323.19 K, 55000 kPa	699.3
323.2 K, 15000 kPa	663.4
323.2 K, 20000 kPa	668.8
323.2 K, 30000 kPa	678.6
323.2 K, 35000 kPa	683.4
323.2 K, 40000 kPa	687.3
323.2 K, 70000 kPa	709.4
323.2 K, 80000 kPa	715.7
323.2 K, 90000 kPa	721.6
323.2 K, 100000 kPa	727.2
323.21 K, 25000 kPa	673.8
323.21 K, 45000 kPa	691.8
333.08 K, 500 kPa	635.3
333.08 K, 1000 kPa	636
333.08 K, 3000 kPa	639.1
333.08 K, 5000 kPa	642
333.08 K, 10000 kPa	648.8
333.09 K, 15000 kPa	655
333.09 K, 20000 kPa	660.8
333.09 K, 25000 kPa	666.1
333.09 K, 30000 kPa	671.1
333.09 K, 35000 kPa	676.4
333.09 K, 40000 kPa	680.2
333.09 K, 45000 kPa	685.1
333.09 K, 50000 kPa	688.5
333.09 K, 55000 kPa	693
333.09 K, 60000 kPa	696.1
333.09 K, 70000 kPa	703.3
333.09 K, 80000 kPa	709.8
333.09 K, 90000 kPa	715.9
333.09 K, 100000 kPa	721.7
342.96 K, 500 kPa	625.6
342.96 K, 1000 kPa	626.4
342.97 K, 3000 kPa	629.8
342.97 K, 5000 kPa	633
342.97 K, 10000 kPa	640.3
342.97 K, 15000 kPa	647
342.97 K, 20000 kPa	653.2
342.97 K, 25000 kPa	658.8
342.97 K, 30000 kPa	664.1
342.97 K, 35000 kPa	669.6
342.97 K, 40000 kPa	673.8
342.97 K, 45000 kPa	678.8
342.97 K, 50000 kPa	682.3
342.97 K, 55000 kPa	687
342.97 K, 60000 kPa	690.4
342.97 K, 70000 kPa	697.6
342.97 K, 80000 kPa	704.3
342.97 K, 90000 kPa	710.7
342.97 K, 100000 kPa	716.6
352.85 K, 500 kPa	615.7
352.85 K, 1000 kPa	617
352.85 K, 3000 kPa	620.7
352.85 K, 5000 kPa	624.2
352.85 K, 15000 kPa	639.4
352.86 K, 10000 kPa	632.2
352.86 K, 20000 kPa	645.7
352.86 K, 25000 kPa	651.7
352.86 K, 30000 kPa	657.4
352.86 K, 35000 kPa	662.8
352.86 K, 40000 kPa	667.4
352.86 K, 45000 kPa	672.4
352.86 K, 50000 kPa	676.6
352.86 K, 55000 kPa	680.9
352.86 K, 60000 kPa	684.8
352.86 K, 70000 kPa	692.4
352.86 K, 80000 kPa	699.4
352.86 K, 90000 kPa	705.9
352.86 K, 100000 kPa	712
362.7 K, 500 kPa	604.1
362.7 K, 1000 kPa	605.5
362.7 K, 100000 kPa	705.7
362.71 K, 3000 kPa	609.5
362.71 K, 5000 kPa	613.3
362.71 K, 10000 kPa	622
362.71 K, 15000 kPa	629.7
362.71 K, 20000 kPa	636.7
362.71 K, 25000 kPa	643
362.71 K, 30000 kPa	648.9
362.71 K, 35000 kPa	654.7
362.71 K, 40000 kPa	659.6
362.71 K, 45000 kPa	664.8
362.71 K, 50000 kPa	669
362.71 K, 55000 kPa	673.7
362.71 K, 60000 kPa	677.6
362.71 K, 70000 kPa	685.4
362.71 K, 80000 kPa	692.6
362.71 K, 90000 kPa	699.3
